# Test results: PubChem BioAssay (NCI)
#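 Following 48 hours of exposure in 96-well plates, responses at five concentrations were used to interpolate endpoints linearly. The concentration for full growth arrest is given as TGI.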
# Columns and labels:
# Experiment in all cases: NCI tumour cell line growth inhibition, 48 h
# [1] = tested on: SNB-78 CNS
# [2] = tested on: ACHN renal
# [3] = tested on: SK-MEL-2 melanoma
# [4] = tested on: SNB-75 CNS
# [5] = tested on: HOP-18 NSCLC
# [6] = tested on: SK-MEL-28 melanoma
# [7] = tested on: KM20L2 colon
# [8] = tested on: UACC-62 melanoma
# [9] = tested on: TK-10 renal
# [10] = tested on: SN12C renal
# [11] = tested on: NCI-H226 lung
# [12] = tested on: NCI-H460 lung
# [13] = tested on: XF 498 CNS
# [14] = tested on: OVCAR-8 ovarian
# [15] = tested on: OVCAR-3 ovarian
# [16] = tested on: NCI-H23 lung
# [17] = tested on: CAKI-1 renal
# [18] = tested on: HOP-62 NSCLC
# [19] = tested on: SF-268 CNS
# [20] = tested on: LXFL 529 NSCLC
# [21] = tested on: HCT-116 colon
# [22] = tested on: EKVX NSCLC
# [23] = tested on: HT29 colon
# [24] = tested on: KM12 colon
# [25] = tested on: A549 NSCLC
# [26] = tested on: HCC-2998 colon
# [27] = tested on: UACC-257 melanoma
# [28] = tested on: SK-OV-3 ovarian
# [29] = tested on: OVCAR-5 ovarian
# [30] = tested on: HL-60(TB) leukemia
# [31] = tested on: 786-0 renal
# [32] = tested on: HCT-15 colon
# [33] = tested on: DMS 273 small cell lung
# [34] = tested on: NCI-H522 lung
# [35] = tested on: IGROV1 ovarian
# [36] = tested on: SR leukemia
# [37] = tested on: MALME-3M melanoma
# [38] = tested on: U251 CNS
# [39] = tested on: DMS 114 small cell lung
# [40] = tested on: UO-31 renal
# [41] = tested on: M14 melanoma
# [42] = tested on: SNB-19 CNS
# [43] = tested on: SK-MEL-5 melanoma
# [44] = tested on: RXF 393 renal
# [45] = tested on: MOLT-4 leukemia
# [46] = tested on: SW-620 colon
# [47] = tested on: HOP-92 NSCLC
# [48] = tested on: SF-539 CNS
# [49] = tested on: A498 renal
# [50] = tested on: SF-295 CNS
# [51] = tested on: COLO 205 colon
# [52] = tested on: OVCAR-4 ovarian
# [53] = tested on: M19-MEL melanoma
# [54] = tested on: CCRF-CEM leukemia
# [55] = tested on: K-562 leukemia
# [56] = tested on: DLD-1 colon
# [57] = tested on: LOX IMVI melanoma
compound,measurement,setting,value
Cn1c2ccccc2c(=O)c2c([N+](=O)[O-])ccc(NCCN)c21,TGI,[1],31.3 µM
same,TGI,[2],19.7 µM
same,TGI,[3],36 µM
same,TGI,[4],26.8 µM
same,TGI,[5],26.4 µM
same,TGI,[6],29.2 µM
same,TGI,[7],24.1 µM
same,TGI,[8],29.6 µM
same,TGI,[9],28.5 µM
same,TGI,[10],17.2 µM
same,TGI,[11],27.2 µM
same,TGI,[12],22.8 µM
same,TGI,[13],28.7 µM
same,TGI,[14],24.5 µM
same,TGI,[15],27.2 µM
same,TGI,[16],23.6 µM
same,TGI,[17],25.9 µM
same,TGI,[18],30.7 µM
same,TGI,[19],26 µM
same,TGI,[20],21.1 µM
same,TGI,[21],15.3 µM
same,TGI,[22],31 µM
same,TGI,[23],17.3 µM
same,TGI,[24],19.7 µM
same,TGI,[25],25.5 µM
same,TGI,[26],21.8 µM
same,TGI,[27],26.9 µM
same,TGI,[28],29.4 µM
same,TGI,[29],26.9 µM
same,TGI,[30],22.9 µM
same,TGI,[31],20.6 µM
same,TGI,[32],26.7 µM
same,TGI,[33],16.9 µM
same,TGI,[34],20.5 µM
same,TGI,[35],27.2 µM
same,TGI,[36],> 100 µM
same,TGI,[37],28.9 µM
same,TGI,[38],28.1 µM
same,TGI,[39],26.4 µM
same,TGI,[40],18.8 µM
same,TGI,[41],27.4 µM
same,TGI,[42],27.8 µM
same,TGI,[43],27.2 µM
same,TGI,[44],23.3 µM
same,TGI,[45],7.95 µM
same,TGI,[46],16.6 µM
same,TGI,[47],20.2 µM
same,TGI,[48],20.8 µM
same,TGI,[49],31 µM
same,TGI,[50],25 µM
same,TGI,[51],19.3 µM
same,TGI,[52],24.9 µM
same,TGI,[53],26 µM
Cc1nc2c(n1CCN(C)C)C(=O)c1ccccc1C2=O,TGI,[1],78.9 µM
same,TGI,[2],31.5 µM
same,TGI,[3],26.2 µM
same,TGI,[4],> 100 µM
same,TGI,[6],> 100 µM
same,TGI,[7],25.8 µM
same,TGI,[54],47.1 µM
same,TGI,[8],25.8 µM
same,TGI,[9],> 100 µM
same,TGI,[10],35.8 µM
same,TGI,[11],> 100 µM
same,TGI,[12],45.5 µM
same,TGI,[13],33.1 µM
same,TGI,[14],43.1 µM
same,TGI,[55],48.4 µM
same,TGI,[15],20 µM
same,TGI,[16],24.5 µM
same,TGI,[18],78.7 µM
same,TGI,[19],72 µM
same,TGI,[56],26.9 µM
same,TGI,[20],37.3 µM
same,TGI,[21],33 µM
same,TGI,[22],32.2 µM
same,TGI,[23],65.1 µM
same,TGI,[24],40.9 µM
same,TGI,[25],52.8 µM
same,TGI,[26],47.7 µM
same,TGI,[27],27.1 µM
same,TGI,[28],> 100 µM
same,TGI,[30],30.7 µM
same,TGI,[31],> 100 µM
same,TGI,[32],26 µM
same,TGI,[33],28.8 µM
same,TGI,[34],18.5 µM
same,TGI,[35],26.5 µM
same,TGI,[36],73.2 µM
same,TGI,[37],8.06 µM
same,TGI,[38],32.2 µM
same,TGI,[40],49 µM
same,TGI,[41],24.1 µM
same,TGI,[42],76.2 µM
same,TGI,[43],20.4 µM
same,TGI,[44],68.2 µM
same,TGI,[45],62.1 µM
same,TGI,[46],29 µM
same,TGI,[48],46.3 µM
same,TGI,[50],30.9 µM
same,TGI,[57],39.1 µM
same,TGI,[51],16.5 µM
same,TGI,[52],29.3 µM
same,TGI,[53],4.3 µM
